Test results as given in patent US9632034B2, “Fluorogenic and chromogenic substrate” (LI-COR, Inc., priority 2015, dated 2017).

Legend:
[1] = target: T1, HRP-conjugated secondary antibody (Erk protein in C32 cell lysates) (Armoracia rusticana, UniProt P00433); assay: Western blot of Erk protein in C32 cell lysates, near-infrared chemifluorescence detection against chemiluminescent substrate; type: biochemical
T1 sequence (P00433 31-338): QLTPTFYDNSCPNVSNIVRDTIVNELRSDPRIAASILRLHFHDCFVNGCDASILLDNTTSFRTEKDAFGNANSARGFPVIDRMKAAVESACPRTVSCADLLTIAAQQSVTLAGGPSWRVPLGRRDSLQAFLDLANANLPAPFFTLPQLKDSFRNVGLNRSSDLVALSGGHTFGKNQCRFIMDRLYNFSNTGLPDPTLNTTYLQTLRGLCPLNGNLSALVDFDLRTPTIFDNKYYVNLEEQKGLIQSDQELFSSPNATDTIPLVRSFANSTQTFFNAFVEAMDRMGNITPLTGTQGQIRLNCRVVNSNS
Experimental: A series of tests were performed to determine the optimal concentration of PTA in the detection method. Western blot analysis was performed on cell lysates generated from the C32 cell line that expresses high levels of Erk protein. The lysates were processed according to standard western blotting protocols. Briefly, Erk protein was detected using a primary antibody against Erk (an anti-Erk monoclonal antibody) and an HRP-conjugated secondary antibody (goat anti-mouse IgG antibody). Different concentrations of the PTA substrate were compared by visualization of color formation and detection of protein bands. The limit of detection (LOD) was measured by chemifluorescence signal and compared to the LOD using Thermo Scientific™ SuperSignal™ West Femto Substrate. […] FIG. 5 illustrates the comparison and effect of PTA concentration on LOD of Erk protein in C32 cell lysates.
The exemplary formulation of the detection solution tested comprises two concentrated solutions: Solution A (a first part) and Solution B (a second part). […]
In this experiment Erk protein was detected in C32 cell lysates using a 1:1000 dilution of a monoclonal antibody directed to Erk. […] Near-infrared fluorescence from PTA treated blot was detected using the Odyssey® CLx system set at the 700 channel. Chemiluminescence from the control blot was detected using the Odyssey® Fc imaging system set at the chemiluminescence channel.

[2] = PTA solubility in water and in assay buffer with solubilizers (precipitate visualization, HPLC); type: physicochemical; conditions: for Appearance of solution: PTA in assay buffer (Tris buffer, pH 9.5) with the named solubilizer at the w/v concentration printed in the table; for Appearance of PTA solution after overnight storage at room temperature: PTA in assay buffer (Tris buffer, pH 9.5) with the named solubilizer
Experimental: Next, the solvent system for phenothiazine (PTA) was tested. […] The solubility of PTA with polymers was tested by precipitate visualization and by HPLC of fresh and stored samples. Table 1 provides a comparison of polymers that include PTA solubility in an assay buffer, such as Tris buffer, pH 9.5.

HRP-azine system = target: T2, HRP-azine system (Armoracia rusticana, UniProt P00433); assay: Optimisation of formulation components (radical enhancer, nucleophilic reagent, oxidant) on western blot; type: biochemical; conditions: for preferred concentration in working solution: by rate of visualization and/or number of colored bands on western blot, PTAS tested 2 to 30 mM, MORP 0 to 20 mM; for effect of oxidant on azine oxidization and formation of colored and fluorescent compounds: at certain concentrations, HRP-azine system
T2 sequence (P00433 31-338): T1 sequence (P00433 31-338)
Experimental: The optimal concentrations of the cation radical enhancer, nucleophilic reagent, solvent system and oxidant in the formulation were also tested. Water soluble azine, particularly 3-(10′-phenothiazinyl)propane-1-sulfonate (PTAS) was tested at various concentrations from 2 to 30 mM in a working solution. The effects were evaluated using the rate (speed) of visualization and the number of colored band on western blot. The preferred concentration of PTAS was 18 mM. Other water soluble and N-substituted PTA derivatives can also be used in place of PTAS or in combination thereof. The nucleophilic reagent serves as a co-substrate in the detection solution. The nucleophilic reagent can include five or six membered nitrogen heteroaromatic ring compounds. MORP at concentrations from 0 to 20 mM was tested in the formulation. Based on the number of colored bands detected, the preferred concentration was 15 mM MORP in the working solution.
Stable oxidants that are compatible with HRP-azine system are tested. Sodium perborate (NaBO3), Urea-H2O2 and stabilized H2O2 at certain concentrations accelerated azine oxidization and formation of colored and fluorescent compounds.

For `CN(C)c1ccc2c(c1)Sc1cc(N(C)C)ccc1N2C(=O)c1ccccc1` [BLMB], the “enhancement in sensitivity compared to SuperSignal West Femto Chemiluminescence Substrate” value ([1]; BLMB formulation with dextran sulfate, DMAP, HNA, citric buffer, NaBO3, final pH 5.0) was 2˜4 fold.

In the case of `OCCO` [Ethylene Glycol (EG), Ethylene Glycol], the Appearance of solution [2] is reported as “cloudy”, the “Appearance of PTA solution after overnight storage at room temperature” value [2] is reported as “Precipitation,” and the “PTA concentration given with appearance of PTA solution after overnight storage at room temperature” value ([2]; PTA in assay buffer with the named solubilizer) is reported as 0.5 mM.

In the case of `c1cc(N2CCOCC2)ccn1` [MORP, 4-morpholinopyridine], the “preferred concentration in working solution” value (HRP-azine system) is reported as 15 mM.

For `c1ccc2c(c1)Nc1ccccc1S2` [PTA, 10H-phenothiazine], the Appearance of solution [2] was “cloudy”, the “Appearance of PTA solution after overnight storage at room temperature” value [2] was “Precipitate,” and the “PTA concentration given with appearance of PTA solution after overnight storage at room temperature” value ([2]; assay buffer, no solubilizer added) was 0.00015 mM. For the same compound, the “PTA concentration with the highest sensitivity in working solution” value ([1]; LOD of Erk protein by chemifluorescence at 700 nm, 0.65, 0.35, 0.15 mM PTA compared) was 0.35 mM.

In the case of `O=S(=O)([O-])CCCN1c2ccccc2Sc2ccccc21.[Na+]` [PTAS, sodium 3-(phenothiazine-10-yl)propane-1-sulfonate], the “preferred concentration in working solution” value (HRP-azine system) is reported as 18 mM.

With `NC(N)=O.OO` [Urea-H2O2, urea-hydrogen peroxide] the “effect of oxidant on azine oxidization and formation of colored and fluorescent compounds” value (from here on “effect of oxidant”) (HRP-azine system) was “accelerated”.

For `OO` [stabilized H2O2, hydrogen peroxide], the “effect of oxidant” value (HRP-azine system) was “accelerated”.

For Sodium perborate, the “effect of oxidant” value (HRP-azine system) was “accelerated”.
